Laboratory results: ChEMBL document CHEMBL1806461, “Identification of MK-5710 ((8aS)-8a-methyl-1,3-dioxo-2-[(1S,2R)-2-phenylcyclopropyl]-N-(1-phenyl-1H-pyrazol-5-yl)hexahydroimid azo[1,5-a]pyrazine-7(1H)-carboxamide), a potent smoothened antagonist for use in Hedgehog pathway dependent malignancies, part 1” (Bioorg Med Chem Lett, 2011)
Activity calls are given as the source filed them. No cut-off for these calls is given here.

tested on: not listed separately; test: Growth inhibition of Ptch +/- mouse medulloblastoma cells; type: functional; conditions: Medulloblastoma cell

Compound	CC50 [nM]
O=C(Nc1ccccc1-c1ccccc1)N1CCN2C(=O)N([C@H]3C[C@@H]3c3ccccc3)C(=O)C2C1 (mixture of isomers)	12
O=C(Nc1cccc(Cl)c1Cl)N1CCN2C(=O)N([C@H]3C[C@@H]3c3ccccc3)C(=O)C2C1 (mixture of isomers)	3.3

tested on: not listed separately; test: Intrinsic clearance in rat liver microsomes assessed per mg of protein; type: ADME, Microsome; conditions: not given

microsomal CLint [µL/min/mg]	Compound
> 300	O=C(Nc1ccccc1-c1ccccc1)N1CCN2C(=O)N([C@H]3C[C@@H]3c3ccccc3)C(=O)C2C1 (mixture of isomers)
180	O=C(Nc1cccc(Cl)c1Cl)N1CCN2C(=O)N([C@H]3C[C@@H]3c3ccccc3)C(=O)C2C1 (mixture of isomers)

molecular target: T1, Protein smoothened (Homo sapiens, UniProt Q99835); test: Displacement of [125I]-PA cyclopamine from smoothened expressed in african green monkey COS-1 cells after 10 mins by autoradiography; type: cell-based; conditions: not given
T1 sequence (Q99835 whole entry): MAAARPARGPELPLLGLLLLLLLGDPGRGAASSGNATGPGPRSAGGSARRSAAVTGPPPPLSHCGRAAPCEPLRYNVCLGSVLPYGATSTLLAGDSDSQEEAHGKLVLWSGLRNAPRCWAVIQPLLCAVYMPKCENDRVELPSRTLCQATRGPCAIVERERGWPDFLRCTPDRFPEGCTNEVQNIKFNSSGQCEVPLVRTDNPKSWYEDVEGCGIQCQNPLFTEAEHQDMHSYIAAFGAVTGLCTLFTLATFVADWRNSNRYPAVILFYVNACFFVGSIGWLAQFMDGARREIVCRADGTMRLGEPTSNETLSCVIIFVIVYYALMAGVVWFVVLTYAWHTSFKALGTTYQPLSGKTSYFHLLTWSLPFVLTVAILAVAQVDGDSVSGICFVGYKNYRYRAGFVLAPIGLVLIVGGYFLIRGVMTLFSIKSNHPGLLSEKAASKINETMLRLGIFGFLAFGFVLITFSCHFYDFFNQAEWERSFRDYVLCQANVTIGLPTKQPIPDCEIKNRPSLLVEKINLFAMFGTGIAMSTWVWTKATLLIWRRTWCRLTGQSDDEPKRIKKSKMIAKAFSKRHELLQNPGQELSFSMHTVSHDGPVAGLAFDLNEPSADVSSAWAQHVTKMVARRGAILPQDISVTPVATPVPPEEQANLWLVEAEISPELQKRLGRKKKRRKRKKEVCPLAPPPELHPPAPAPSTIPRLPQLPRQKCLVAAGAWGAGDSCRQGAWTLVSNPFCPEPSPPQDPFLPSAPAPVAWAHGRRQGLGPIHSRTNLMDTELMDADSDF

Compound	IC50 [nM]
Cc1cc(C#N)cc(Cl)c1NC(=O)N1CCN2C(=O)N([C@H]3C[C@@H]3c3ccccc3)C(=O)C2C1 (mixture of isomers)	84
O=C(Nc1c(Cl)cc(OC(F)(F)F)cc1Cl)N1CCN2C(=O)N([C@H]3C[C@@H]3c3ccccc3)C(=O)C2C1 (mixture of isomers)	130
O=C(Nc1ccccc1-c1ccccc1)N1CCN2C(=O)N([C@H]3C[C@@H]3c3ccccc3)CC2C1 (mixture of isomers)	1400
COC(=O)c1cccc(NC(=O)N2CCN3C(=O)N([C@H]4C[C@@H]4c4ccccc4)C(=O)C3C2)c1Cl (mixture of isomers)	1100
O=C(Nc1ccccc1-c1ccccc1)N1CCN2C(=O)N(Cc3ccccc3)C(=O)C2C1 (racemic)	> 2500
O=C(Nc1cccnc1-c1cccc(Cl)c1)N1CCN2C(=O)N([C@H]3C[C@@H]3c3ccccc3)C(=O)C2C1 (mixture of isomers)	19
O=C1C2CN(CC3CCCCC3)CCN2C(=O)N1[C@H]1C[C@@H]1c1ccccc1 (mixture of isomers)	> 2500
O=C(Nc1ccccc1-c1ccccc1)N1CCN2C(=O)N([C@H]3C[C@H](c4ccccc4)C3)C(=O)C2C1 (mixture of isomers)	440
Cn1cc(-c2ncccc2NC(=O)N2CCN3C(=O)N([C@H]4C[C@@H]4c4ccccc4)C(=O)C3C2)cn1 (mixture of isomers)	620
O=C(Nc1cccnc1-c1ccc(Cl)cc1)N1CCN2C(=O)N([C@H]3C[C@@H]3c3ccccc3)C(=O)C2C1 (mixture of isomers)	680
O=C(Nc1ccccc1-c1ccccc1)N1CCN2C(=O)N(C3Cc4ccccc4C3)C(=O)C2C1 (racemic)	880
O=C(Nc1ccccc1-c1ccccc1)N1CCN2C(=O)N([C@H]3C[C@@H]3c3ccccc3)C(=O)C2C1 (mixture of isomers)	94
O=C(Nc1ccccc1-c1ccsc1)N1CCN2C(=O)N([C@H]3C[C@@H]3c3ccccc3)C(=O)C2C1 (mixture of isomers)	220
CS(=O)(=O)c1cc(Cl)c(NC(=O)N2CCN3C(=O)N([C@H]4C[C@@H]4c4ccccc4)C(=O)C3C2)c(Cl)c1 (mixture of isomers)	77
O=C(Nc1ccnn1-c1ccccc1)N1CCN2C(=O)N([C@H]3C[C@@H]3c3ccccc3)C(=O)CC2C1 (mixture of isomers)	7800
O=C(Nc1ccccc1-c1ccccc1)N1CCN2C(=O)N(CCc3ccccc3)C(=O)C2C1 (racemic)	2000
O=C(Nc1ccncc1-c1ccccc1)N1CCN2C(=O)N([C@H]3C[C@@H]3c3ccccc3)C(=O)C2C1 (mixture of isomers)	88
O=C(Nc1ccnn1-c1ccccc1)N1CCN2CC(=O)N([C@H]3C[C@@H]3c3ccccc3)C(=O)C2C1 (mixture of isomers)	5100
O=C(Nc1ccccc1-c1cnco1)N1CCN2C(=O)N([C@H]3C[C@@H]3c3ccccc3)C(=O)C2C1 (mixture of isomers)	1800
O=C(Nc1ccccc1-c1ccccc1)N1CCN2C(=O)N(c3cccc4ccccc34)C(=O)C2C1 (racemic)	> 2500

Compound	IC50 [nM]
O=C(Nc1c(Cl)cc(F)cc1Cl)N1CCN2C(=O)N([C@H]3C[C@@H]3c3ccccc3)C(=O)C2C1 (mixture of isomers)	310
O=C(Nc1cccnc1-c1ccccc1Cl)N1CCN2C(=O)N([C@H]3C[C@@H]3c3ccccc3)C(=O)C2C1 (mixture of isomers)	140
O=C(Nc1cccnc1-c1cccc(C(F)(F)F)c1)N1CCN2C(=O)N([C@H]3C[C@@H]3c3ccccc3)C(=O)C2C1 (mixture of isomers)	160
O=C(Nc1cccnc1-c1ccccc1)N1CCN2C(=O)N([C@H]3C[C@@H]3c3ccccc3)C(=O)C2C1 (mixture of isomers)	12
O=C(Nc1ccccc1-c1ccccc1)N1CCN2C(=O)N(c3cccc(-c4ccccc4)c3)C(=O)C2C1 (racemic)	> 2500
O=C(Nc1cccnc1-c1ccsc1)N1CCN2C(=O)N([C@H]3C[C@@H]3c3ccccc3)C(=O)C2C1 (mixture of isomers)	88
O=C(Nc1c(Cl)cc(C(F)(F)F)cc1Cl)N1CCN2C(=O)N([C@H]3C[C@@H]3c3ccccc3)C(=O)C2C1 (mixture of isomers)	280
N#Cc1cc(Cl)c(NC(=O)N2CCN3C(=O)N([C@H]4C[C@@H]4c4ccccc4)C(=O)C3C2)c(Cl)c1 (mixture of isomers)	62
O=C(Nc1ccccc1-c1ccccc1)c1ccc2c(c1)C(=O)N([C@H]1C[C@@H]1c1ccccc1)C2=O	3200
COc1cccc(-c2ncccc2NC(=O)N2CCN3C(=O)N([C@H]4C[C@@H]4c4ccccc4)C(=O)C3C2)c1 (mixture of isomers)	47
CN(C(=O)N1CCN2C(=O)N([C@H]3C[C@@H]3c3ccccc3)C(=O)C2C1)c1ccccc1-c1ccccc1 (mixture of isomers)	1000
O=C(Nc1ccccc1-c1ccccc1)N1CCN2C(=O)N([C@H]3C[C@H]3c3ccccc3)C(=O)C2C1 (mixture of isomers)	> 2500
O=C(Nc1ccccc1C(F)(F)F)N1CCN2C(=O)N([C@H]3C[C@@H]3c3ccccc3)C(=O)C2C1 (mixture of isomers)	890
O=C(Nc1ccnn1-c1ccccc1)N1CCN2C(=O)N([C@H]3C[C@@H]3c3ccccc3)C(=O)C2C1 (mixture of isomers)	13
CCCCN1C(=O)C2CN(C(=O)Nc3ccccc3-c3ccccc3)CCN2C1=O (racemic)	> 2500
O=C(Nc1ccc(-c2ccccc2)cc1)N1CCN2C(=O)N([C@H]3C[C@@H]3c3ccccc3)C(=O)C2C1 (mixture of isomers)	890
O=C(Nc1ccc2c(c1)OCO2)N1CCN2C(=O)N([C@H]3C[C@@H]3c3ccccc3)C(=O)C2C1 (mixture of isomers)	700
O=C(Nc1ccc(F)c(Cl)c1Cl)N1CCN2C(=O)N([C@H]3C[C@@H]3c3ccccc3)C(=O)C2C1 (mixture of isomers)	480
O=C(Nc1ccccc1-c1ccccc1)N1CCN2C(=O)N(C3CC34CCCCC4)C(=O)C2C1 (racemic)	> 2500

Results, then the compound that gave them:

IC50 [nM]	Compound
920	CCCCN(CCCC)C(=O)N1CCN2C(=O)N([C@H]3C[C@@H]3c3ccccc3)C(=O)C2C1 (mixture of isomers)
4000	CC(C)(C)C(=O)N1CCN2C(=O)N([C@H]3C[C@@H]3c3ccccc3)C(=O)C2C1 (mixture of isomers)
210	CC(C)c1ccccc1NC(=O)N1CCN2C(=O)N([C@H]3C[C@@H]3c3ccccc3)C(=O)C2C1 (mixture of isomers)
1700	COc1ccccc1NC(=O)N1CCN2C(=O)N([C@H]3C[C@@H]3c3ccccc3)C(=O)C2C1 (mixture of isomers)
460	Cc1c(Cl)cccc1NC(=O)N1CCN2C(=O)N([C@H]3C[C@@H]3c3ccccc3)C(=O)C2C1 (mixture of isomers)
> 2500	CN(C)C(=O)N1CCN2C(=O)N([C@H]3C[C@@H]3c3ccccc3)C(=O)C2C1 (mixture of isomers)
380	CCCCCCNC(=O)N1CCN2C(=O)N([C@H]3C[C@@H]3c3ccccc3)C(=O)C2C1 (mixture of isomers)
> 1500	COC(=O)N1CCN2C(=O)N([C@H]3C[C@@H]3c3ccccc3)C(=O)C2C1 (mixture of isomers)
> 1500	O=C(C1CCCCC1)N1CCN2C(=O)N([C@H]3C[C@@H]3c3ccccc3)C(=O)C2C1 (mixture of isomers)
280	O=C(Nc1cc(Cl)cc(Cl)c1)N1CCN2C(=O)N([C@H]3C[C@@H]3c3ccccc3)C(=O)C2C1 (mixture of isomers)
250	O=C(NC1CCCCC1)N1CCN2C(=O)N([C@H]3C[C@@H]3c3ccccc3)C(=O)C2C1 (mixture of isomers)
> 2500	N#Cc1ccccc1NC(=O)N1CCN2C(=O)N([C@H]3C[C@@H]3c3ccccc3)C(=O)C2C1 (mixture of isomers)
280	O=C(Nc1c(Cl)cccc1Cl)N1CCN2C(=O)N([C@H]3C[C@@H]3c3ccccc3)C(=O)C2C1 (mixture of isomers)
220	O=C(Nc1cccc(Cl)c1Cl)N1CCN2C(=O)N([C@H]3C[C@@H]3c3ccccc3)C(=O)C2C1 (mixture of isomers)
1100	O=C(Nc1ccc(F)cc1Cl)N1CCN2C(=O)N([C@H]3C[C@@H]3c3ccccc3)C(=O)C2C1 (mixture of isomers)
> 2500	O=C(NCc1ccco1)N1CCN2C(=O)N([C@H]3C[C@@H]3c3ccccc3)C(=O)C2C1 (mixture of isomers)
> 1500	CC(=O)N1CCN2C(=O)N([C@H]3C[C@@H]3c3ccccc3)C(=O)C2C1 (mixture of isomers)
770	Cc1cccc(Cl)c1NC(=O)N1CCN2C(=O)N([C@H]3C[C@@H]3c3ccccc3)C(=O)C2C1 (mixture of isomers)

tested on: Shh Light II; test: Cytotoxicity against mouse Shh Light2 cells assessed as cell viability at 2.5 uM; type: cell-based; conditions: not given

Compound	Activity
CN(C)C(=O)N1CCN2C(=O)N([C@H]3C[C@@H]3c3ccccc3)C(=O)C2C1 (mixture of isomers)	Non-toxic

molecular target: T1, Protein smoothened; conditions: Shh Light II; 2 uM
Description: Antagonist activity at smoothened expressed in mouse Shh Light2 cells co-expressing Gli-dependent reporter gene assessed as inhibition of Hh pathway at 2 uM

inhibition	Compound
Active	CN(C)C(=O)N1CCN2C(=O)N([C@H]3C[C@@H]3c3ccccc3)C(=O)C2C1 (mixture of isomers)
